Assay results published in ChEMBL document CHEMBL5463723, “Data for DCP probe BIBO3304” (2023).

Tests used:
[1] = target: Neuropeptide Y receptor type 4 (Homo sapiens, UniProt P50391); test: Radioligand binding assay (human NPY4R, CHO cells); assay type: cell-based
[2] = target: T1, Neuropeptide Y receptor type 2 (Homo sapiens, UniProt P49146); test: Radioligand binding assay (NPY2R, SMS-KAN cells); assay type: cell-based
T1 sequence (P49146 whole entry): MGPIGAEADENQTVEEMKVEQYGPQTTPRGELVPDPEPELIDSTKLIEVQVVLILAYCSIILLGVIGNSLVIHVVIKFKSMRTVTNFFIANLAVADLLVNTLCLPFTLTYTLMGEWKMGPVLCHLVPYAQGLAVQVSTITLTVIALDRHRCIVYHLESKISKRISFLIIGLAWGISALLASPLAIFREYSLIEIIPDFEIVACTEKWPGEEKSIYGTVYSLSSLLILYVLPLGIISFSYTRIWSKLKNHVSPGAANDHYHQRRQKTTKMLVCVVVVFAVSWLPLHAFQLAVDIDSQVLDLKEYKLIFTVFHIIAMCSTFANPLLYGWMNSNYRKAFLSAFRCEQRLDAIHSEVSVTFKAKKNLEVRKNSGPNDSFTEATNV

[3] = target: Neuropeptide Y receptor type 4 (Rattus norvegicus, UniProt Q63447); test: Radioligand binding assay (rat NPY4R, CHO cells); assay type: cell-based
Sequence of Neuropeptide Y receptor type 4 (Rattus norvegicus, UniProt Q63447) (Q63447 whole entry): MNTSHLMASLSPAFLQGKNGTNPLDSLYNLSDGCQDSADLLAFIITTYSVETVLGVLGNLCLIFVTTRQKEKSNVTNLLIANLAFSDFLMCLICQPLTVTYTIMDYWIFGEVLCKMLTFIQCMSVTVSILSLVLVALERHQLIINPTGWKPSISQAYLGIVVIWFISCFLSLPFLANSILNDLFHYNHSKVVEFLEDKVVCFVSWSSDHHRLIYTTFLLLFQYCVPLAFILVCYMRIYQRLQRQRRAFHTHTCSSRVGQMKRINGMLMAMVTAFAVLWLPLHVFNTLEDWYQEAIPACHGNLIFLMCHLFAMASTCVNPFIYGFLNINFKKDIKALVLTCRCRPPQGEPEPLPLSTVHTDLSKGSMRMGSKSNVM

[4] = target: Neuropeptide Y receptor type 5 (Rattus norvegicus, UniProt Q63634); test: Radioligand binding assay (rat NPY5R, CHO cells); assay type: cell-based
Sequence of Neuropeptide Y receptor type 5 (Rattus norvegicus, UniProt Q63634) (Q63634 whole entry): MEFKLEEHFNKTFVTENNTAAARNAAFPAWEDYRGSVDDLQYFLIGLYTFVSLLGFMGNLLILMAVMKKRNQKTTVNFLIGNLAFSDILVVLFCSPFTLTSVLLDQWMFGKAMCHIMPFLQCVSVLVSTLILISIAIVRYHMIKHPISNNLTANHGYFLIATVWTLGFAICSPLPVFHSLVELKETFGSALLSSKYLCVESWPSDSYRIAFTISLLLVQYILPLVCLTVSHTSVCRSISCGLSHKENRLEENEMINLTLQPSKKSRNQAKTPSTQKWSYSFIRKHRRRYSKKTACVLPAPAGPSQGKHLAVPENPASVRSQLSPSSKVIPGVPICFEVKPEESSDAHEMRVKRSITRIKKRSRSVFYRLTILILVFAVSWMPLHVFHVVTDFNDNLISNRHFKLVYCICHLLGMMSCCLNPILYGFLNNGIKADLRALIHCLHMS

[5] = target: T1, Neuropeptide Y receptor type 2; test: Radioligand binding assay (NPY2R, BHK); assay type: cell-based, BHK-21
[6] = target: Neuropeptide Y receptor type 5 (Homo sapiens, UniProt Q15761); test: Radioligand binding assay (human NPY5R, HEK293); assay type: cell-based
Sequence of Neuropeptide Y receptor type 5 (Homo sapiens, UniProt Q15761) (Q15761 whole entry): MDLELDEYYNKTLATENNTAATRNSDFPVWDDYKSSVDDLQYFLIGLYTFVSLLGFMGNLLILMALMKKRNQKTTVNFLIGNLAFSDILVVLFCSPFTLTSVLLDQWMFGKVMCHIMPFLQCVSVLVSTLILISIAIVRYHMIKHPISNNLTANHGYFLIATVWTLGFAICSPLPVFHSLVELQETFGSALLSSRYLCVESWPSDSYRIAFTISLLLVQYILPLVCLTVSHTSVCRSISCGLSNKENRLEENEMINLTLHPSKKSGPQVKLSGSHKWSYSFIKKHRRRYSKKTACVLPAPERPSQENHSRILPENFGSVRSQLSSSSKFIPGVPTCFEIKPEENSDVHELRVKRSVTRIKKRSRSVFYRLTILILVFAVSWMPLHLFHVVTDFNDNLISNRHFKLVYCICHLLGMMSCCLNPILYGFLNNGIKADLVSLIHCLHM

Sequence of Neuropeptide Y receptor type 4 (Homo sapiens, UniProt P50391) (P50391 whole entry): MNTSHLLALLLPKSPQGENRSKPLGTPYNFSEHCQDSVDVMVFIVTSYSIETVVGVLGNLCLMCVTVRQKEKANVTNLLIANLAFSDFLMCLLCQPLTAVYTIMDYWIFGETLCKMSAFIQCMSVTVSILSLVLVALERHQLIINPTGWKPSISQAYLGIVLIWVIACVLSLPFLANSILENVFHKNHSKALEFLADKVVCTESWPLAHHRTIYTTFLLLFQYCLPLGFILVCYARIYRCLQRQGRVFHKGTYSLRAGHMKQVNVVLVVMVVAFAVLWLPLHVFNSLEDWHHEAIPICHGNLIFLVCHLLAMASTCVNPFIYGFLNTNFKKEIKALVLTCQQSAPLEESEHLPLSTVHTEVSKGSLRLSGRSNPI

For `N=C(N)NCCC[C@H](NC(=O)C(c1ccccc1)c1ccccc1)C(=O)NCc1ccc(CNC(N)=O)cc1`, the IC50 [1] was 24 µM (not active), the IC50 [2] was > 10 µM (not active) and the IC50 [3] was > 10 µM (not active). The IC50 [4] was 23 µM (not active), the IC50 [5] was > 10 µM (not active) and the IC50 [6] was 28 µM (not active).
